Counter-ions that a name gives are not always drawn. Like-named read-outs stand apart in the source and are kept apart here.
Tests used:
[1] = tested on: beta-receptor mediated tachycardia (dog heart rate); assay: beta-blockade in vivo in pentobarbital-anesthetized dogs, 40-minute infusion, inhibition of heart rate response to isoproterenol and recovery
Protocol: (§1) The duration of beta-blockage was determined in vivo using pentobarbital-anesthetized dogs instrumented for measurement of heart rate using a Beckman cardiotachometer triggered electronically by a phasic aortic blood pressure signal. Both vagus nerves were severed in the cervical region and the animals were mechanically ventilated. Two experimental designs were used. The first employed a 40-minute infusion of test compound and the second used a 3-hour infusion of test compound. In the 40-minute model, isoproterenol was infused into a foreleg vein at the rate of […] to induce a beta-receptor mediated tachcardia. Various doses of test compound were then infused into a femoral vein over a period of 40 minutes. This infusion was then terminated and recovery from blockade was quantitated. […] This cumulative dose is expressed as mg/kg and is an indication of potency. The time period required for 80% recovery of heart rate for each dose of test drug was also measured to quantitate duration of action. […] Test compound were dissolved in 0.9% NaCl and infused at a rate of 0.05 ml/Mg/min or less. In the 3-hour infusion model, bolus doses of isoproterenol ([…]) were used to assess the degree of beta-blockade and recovery from beta-blockage after termination of the infusion. The doses were spaced at 10-minute intervals and were given before, during and following the infusion of test compounds. The infusion rate was adjusted so that the end of the 3-hour infusion period the degree of isoproterenol inhibition averaged about 50% of control.

[2] = tested on: heart rate response to isoproterenol (dog); assay: beta-blockade in vivo in pentobarbital-anesthetized dogs, 3-hour infusion, inhibition of heart rate response to isoproterenol and recovery; conditions: 80% recovery after 3-hour infusion
Protocol: as §1

[3] = tested on: β-adrenergic receptors, guinea pig right atria; assay: β-blocking activity in vitro, guinea pig right atria (rate response to isoproterenol); format: cell-based
Protocol: (§2) Each tissue was suspended between a fixed glass rod and a Statham Universal Transducer connected to a Beckman recorder. Atria were allowed to beat spontaneously under a loading tension of approximately 0.5 g. Changes in rate of response to isoproterenol, a standard β-receptor agonist, were measured in the absence and presence of test compounds. Spiral strips of guinea pig trachea were suspended under 5 g resting tension and incubated with phentolamine, tropolone, and cocaine. Active tension was generated by addition of carbachol (3.0×10^-7 M) and decreases in tension in response to isoproterenol were quantitated. Cumulative concentration response curves were produced with isoproterenol both before and after 60-minute incubation of test compounds with atria and trachea. Compounds with β-blocking activitiy shifted concentration response curves to the right. […] The degree of cardioselectivity was estimated from the ratio KB trachea/KB atria 10(pA2 Atria -pA^2 Trachea). A ratio greater than one indicates cardioselectivity. […]

[4] = target: T1, β-adrenergic receptors, guinea pig tracheal strips (Cavia porcellus, UniProt Q8K4Z4); assay: β-blocking activity in vitro, guinea pig tracheal strips (tension response to isoproterenol); format: cell-based; conditions: for Kb: read-out: pA2 Trachea (converted); for pA2 Trachea: pA2 = -log KB, vs isoproterenol, 60-minute incubation, tracheal tension
T1 construct: Spiral strips of guinea pig trachea; from tissue; host or cells: guinea pig trachea, spiral strips
T1 sequence (Q8K4Z4 whole entry): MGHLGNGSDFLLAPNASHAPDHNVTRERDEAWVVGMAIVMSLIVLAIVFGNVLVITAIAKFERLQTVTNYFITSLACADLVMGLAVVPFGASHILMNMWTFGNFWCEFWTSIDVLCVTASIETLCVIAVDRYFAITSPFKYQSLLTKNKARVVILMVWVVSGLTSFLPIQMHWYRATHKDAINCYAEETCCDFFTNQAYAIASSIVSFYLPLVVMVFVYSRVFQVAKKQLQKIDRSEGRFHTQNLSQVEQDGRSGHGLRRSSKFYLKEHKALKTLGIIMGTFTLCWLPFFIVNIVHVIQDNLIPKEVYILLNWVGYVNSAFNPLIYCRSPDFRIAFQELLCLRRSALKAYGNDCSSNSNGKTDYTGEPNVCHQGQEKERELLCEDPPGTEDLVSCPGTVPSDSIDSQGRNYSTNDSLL
Protocol: as §2

[5] = disappearance in vitro in human whole blood; format: in vitro ADME; conditions: 37° C., 50 μg test compound, read-out: T1/2 Human Blood
Protocol: (§3) The rate of disappearance of a compound is expressed as the half-life (T1/2), which is the time period in which one-half of the initial amount of compound tested disappears. […] At the designated time periods, the test mixtures were removed from the incubator and transferred to a 0° C. ice bath. Acetonitrile (2 mL) was immediately added, and the mixtures were mixed to stop enzymatic hydrolysis. Zero time samples were prepared by adding 2 mL of acetonitrile to denature the proteins prior to addition of the test compounds. […] The half-life of each test compound was determined graphically by plotting the decrease in concentration as a function of time.

[6] = disappearance in vitro in dog whole blood; format: in vitro ADME; conditions: 37° C., 50 μg test compound, read-out: T1/2 Dog Blood
Protocol: as §3

[7] = disappearance in vitro in dog liver homogenate; format: in vitro ADME; conditions: 33% (w/v) dog liver homogenate, 37° C., 50 μg test compound; read-out: T1/2 Dog Liver
Protocol: as §3

[8] = target: β-adrenergic receptors, guinea pig right atria (Cavia porcellus, UniProt H0W3H1); assay: β-blocking activity in vitro, guinea pig right atria (rate response to isoproterenol); format: cell-based; conditions: read-out: pA2 Atria (converted)
Sequence of β-adrenergic receptors, guinea pig right atria (Cavia porcellus, UniProt H0W3H1) (H0W3H1 1-470): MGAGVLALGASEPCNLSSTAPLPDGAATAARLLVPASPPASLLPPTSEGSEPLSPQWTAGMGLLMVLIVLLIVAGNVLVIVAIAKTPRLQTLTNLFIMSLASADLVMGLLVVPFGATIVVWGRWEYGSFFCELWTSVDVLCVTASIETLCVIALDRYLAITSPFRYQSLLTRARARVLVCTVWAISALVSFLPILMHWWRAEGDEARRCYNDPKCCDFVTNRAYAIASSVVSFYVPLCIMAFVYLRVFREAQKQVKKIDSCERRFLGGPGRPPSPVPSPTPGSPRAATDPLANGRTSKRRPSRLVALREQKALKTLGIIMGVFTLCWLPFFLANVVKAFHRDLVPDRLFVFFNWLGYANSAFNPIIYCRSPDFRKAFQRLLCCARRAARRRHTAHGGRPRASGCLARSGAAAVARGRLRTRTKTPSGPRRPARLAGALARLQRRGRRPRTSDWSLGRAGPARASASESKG
Protocol: as §2

[9] = ratio KB trachea/KB atria, greater than one indicates cardioselectivity
[10] = Canis lupus familiaris, iv, 40 min; read-out: Potency mg/kg/40 min
[11] = time for 80% recovery of heart rate after 40-minute i.v. infusion, dogs; in min

SMILES | Cardioselectivity [3, 9] | ED50 [1, 10] [mg/kg] | 80% Recovery Time [1, 11] | 80% Recovery Time ([2]; in min) | half-life [5] [min] | half-life [6] [min] | half-life [7] [min] | pA2 Trachea [4] | other results
CC(=O)Nc1ccc(OCC(O)CNC(C)C)cc1 (stereo not shown) [Practolol, reference compound] |  |  |  |  |  |  |  |  | 80% Recovery Time ([1]; time for 80% recovery of heart rate after 40-minute i.v. infusion, dogs): 61 min; 80% Recovery Time [2]: > 60 min
COC(=O)CCc1ccc(OCC(O)CNC(C)C)cc1.Cl (stereo not shown) [Example IV, Methyl 3-[4-[2-Hydroxy-3-(isopropylamino)propoxy]-phenyl]propionate Hydrochloride] | 30 | 1.35 ± 0.52 | 12 ± 2 | 12 ± 3 | 44 | 41 | < 5 |  | Kb [4]: 2510 nM
COC(=O)c1ccccc1OCC(O)CNC(C)C (stereo not shown) [Example IX, Methyl 2-[2-Hydroxy-3-(isopropylamino)propoxy]benzoate] | 2 | 0.176 ± 0.02 | 15 ± 2 | 15 ± 2 | 7 | 38 | 19 | 7.9 | Kb [8]: 6.31 nM
COC(=O)c1ccccc1OCC(O)CNC(C)(C)C (stereo not shown) [Example X, Methyl 2-[2-Hydroxy-3-(t-butylamino)propoxy]benzoate Hydrochloride Hemihydrate] |  | 0.14 ± 0.04 | 12 ± 1 | 22 ± 5 | 7 | 17 | 5 |  | 
CC(C)NCC(O)COc1cccc2ccccc12 (stereo not shown) [Propranolol, reference compound] |  |  |  |  |  |  |  |  | ED50 ([1]; Canis lupus familiaris, iv, 40 min, read-out: Potency mg/kg/40 min): 0.06 ± 0.01 mg/kg; 80% Recovery Time ([1]; iv, 40 min): 42 ± 9
COC(=O)c1ccc(OCC(O)CNC(C)(C)C)cc1 (stereo not shown) [VIII, Methyl 4-[2-Hydroxy-3-(t-butylamino)propoxy]benzoate] |  |  |  |  |  |  |  | 5.4 | Cardioselectivity [3]: 32
COC(=O)c1ccc(OCC(O)CNC(C)C)cc1.Cl (stereo not shown) [Example I, Methyl 4-[2-Hydroxy 3-(isopropylamino)propoxy]benzoate Hydrochloride] | 19 | 3.7 ± 1.3 | 34 ± 11 |  | > 60 | 60 | > 180 | 5.5 | 
COC(=O)CCc1ccccc1OCC(O)CNC(C)C (stereo not shown) [XIII] |  |  |  | 29 ± 6 | 11 | 120 | < 2.5 |  | 
COC(=O)Cc1ccc(OCC(O)CNC(C)C)cc1.Cl (stereo not shown) [III, Methyl 4-[2-Hydroxy-3-(isopropylamino)propoxy]phenylacetate hydrochloride] |  | 2.3 ± 0.6 | 20 ± 5 |  | 2 | 60 | 5 | 5.4 | 
COC(=O)CCc1ccc(OCC(O)CNCCc2ccc(OC)c(OC)c2)cc1 (stereo not shown) [VI] |  |  |  | 14 ± 3 | 44 | 13 | 2 | 5.2 | Cardioselectivity [3]: 20
COC(=O)c1ccccc1OCC(O)CNCCc1ccc(OC)c(OC)c1.O=C(O)C(=O)O (stereo not shown) [Example XI, Methyl 2-[2-Hydroxy-3-(3,4-dimethoxyphenethylamino)propoxy]benzoate Oxalate] | 16 |  |  | 30 ± 4 | 8 | 120 | 3 | 7.1 | 
COC(=O)CCc1ccc(OCC(O)CNC(C)(C)C)cc1 (stereo not shown) [V] | 4 | 4.5 ± 1.5 | 7 ± 2 | 15 ± 3 |  |  |  | 5.9 | 
C=CCOC(=O)c1ccccc1OCC(O)CNC(C)C (stereo not shown) [Example XVI] | 1 |  |  | 36 ± 5 |  |  |  |  | Kb [8]: 12.6 nM; Kb [4]: 12.6 nM
CCOC(=O)c1ccc(OCC(O)CNC(C)C)cc1.Cl (stereo not shown) [II, Ethyl 4-[2-Hydroxy-3-(isopropylamino)propoxy]benzoate Hydrochloride] | 2.5 | 5.7 ± 1.6 | 56 ± 6 |  | > 60 | 60 |  | 6.1 | 
C=CCOC(=O)c1cccc(OCC(O)CNC(C)C)c1 (stereo not shown) [Example XV] |  |  |  |  |  |  |  |  | Kb [8]: 126 nM; Cardioselectivity [3]: 2; Kb [4]: 63.1 nM; 80% Recovery Time [2]: > 60 min
CCCOC(=O)CCc1ccc(OCC(O)CNC(C)C)cc1.Cl (stereo not shown) [XII, n-Propyl 3-[4-[2-Hydroxy-3-(isopropylamino)propoxy]phenyl]propionate Hydrochloride] | 1.6 |  |  |  |  |  |  | 5.2 | 
C=CCOC(=O)c1ccc(OCC(O)CNC(C)C)cc1 (stereo not shown) [Example XIV, 3-Propenyl 4-[2-Hydroxy-3-(isopropylamino)propoxy]benzoate] | 4 |  |  |  |  |  |  |  | Kb [8]: 501 nM; Kb [4]: 2000 nM
